# Assay results: patent US20120128630A1, “1-(6 MEMBERS AZO-HETEROCYCLIC)-PYRROLIN-2-ONE COMPOUNDS AS INHIBITORS OF HEPATITIS C NS5B POLYMERASE, THE PHARAMACEUTICAL COMPOSITION THEREOF AND THEIR THERAPEUTIC USE” (priority 2009, published 2012)
# Key:
# [1] = target: T1, HCV NS5B genotype 1b (Hepatitis C virus genotype 1b, UniProt Q9WMX2); assay: 3D-SCREEN assay (NS5B 3D-Screen platform, luciferase reporter gene); assay type: cell-based; conditions: EC50_3DS_NS5B
# T1 construct: The protein was expressed with a 21 amino acid C-terminal deletion to remove transmembrane domain; expressed in transfected cells; host or cells: Huh-7
# Description: cDNA encoding HCV NS5B genotype 1b, was cloned in frame with Gal4-DNA Binding Domain. The protein was expressed with a 21 amino acid C-terminal deletion to remove transmembrane domain. Expression of NS5BΔ21/Gal4 DBD fusion protein was under control of SV40 early promoter. 3D-Sensor peptide was cloned in frame with VP16 activation domain. Expression of 3D-Sensor/VP16 AD fusion protein was under control of CMV promoter. Expression of the firefly luciferase reporter gene was inducible by the [Target protein/conformation sensitive peptide/VP16AD] complex.
# It is a single-target, cell based assay. Briefly, expression of a reporter gene depends on the interaction of a short peptide, thereafter named 3D-Sensor, and native conformation of the target protein. Whenever the conformation of the target protein is modified, interaction between 3D-sensor and target protein is disrupted and reporter gene is not expressed anymore. Conformation modifiers are identified by loss of expression of reporter gene. NS5B 3D-Screen platform was generated in Huh-7 cell lines by transient transfection of three expression vectors encoding respectively
# (i) HCV NS5BΔ21/Gal4-DBD fusion protein
# (ii) the 3D-sensor peptide I4/VP16 fusion protein
# (iii) the firefly luciferase reporter gene
# Huh-7 cells were dissociated the day before transfection and seeded in T175 flasks at a density of 10^7 cells in 30 ml culture medium. Equimolar ratios of vectors were transfected in cell according to optimized jetPEI transfection protocol (PolyPlus Transfection, Illkirch, France) and 10 μg total DNA/10^6 cells. Transfection was performed for 2 hours at 37° C. and 5% CO2 in a humidified atmosphere. After two hours cells were dissociated and seeded in 96 wells plates at a density of 25,000 cells per well and 90 μl culture medium. 10 μl of compounds to be tested were added 2 hours after seeding. Final concentration of DMSO was 1%. Cells were incubated in the presence of compounds for 24 hours after which expression of firefly luciferase reporter gene was quantified. Briefly, culture medium was removed and cells were lysed by addition of 100 μl of lysis buffer containing 125 mM Tris Phosphate ph 7.8, 10 mM EDTA, 5 mM DTT, 50% glycerol and 5% Triton. Plates were vortexed 10 min at 1300 rpm. Cell lysat was transferred in OpaqueWhite Assay 96 well Flat Bottom plates. 100 μl of luciferin solution 1× were added to each well. Luciferin solution contained 40 mM Tris Phosphate ph 7.8, 0.2 mM EDTA, 67 mM DTT, 2.14 mM MgCl2, 5.4 mM MgSO4, 4.7×10^−4 M luciferin, 5.3×10^−4 M ATP and 2.7×10^−4 M Acetyl co enzyme A. Luminescence was immediately measured with Berthold Microlumat Plus LB 96V luminometer with an integration of 0.5 sec. Inhibition was calculated using the formula: % inhibition=(1−(read/average max))*100. Average max=signal in absence of compound
# [2] = Table 2, titled Replicon assay results
# [3] = Table 1, 3D-SCREEN assay results, Huh-7 cells, 24 hours with compound, firefly luciferase reporter
Compound,"EC50 [1, 2]",melting point,"EC50 [1, 3]"
"Cc1ccc(N2C(=O)C(O)=C(C(=O)c3ccc(C(C)C)cc3)C2c2ccc(OC(C)C)cn2)nn1 (stereo not shown) [Example 121, 3-hydroxy-5-(5-isopropoxy-pyridin-2-yl)-4-(4-isopropyl-benzoyl)-1-(6-methyl-pyridazin-3-yl)-1,5-dihydro-pyrrol-2-one]",< 10 µM,243 to 245 °C,
"Cc1ccc(N2C(=O)C(O)=C(C(=O)c3ccc(C(C)C)cc3)C2c2ccc(C(C)C)cc2)cn1.Cl (stereo not shown) [Example 66, 5-[3-hydroxy-4-(4-isopropyl-benzoyl)-5-(4-isopropyl-phenyl)-2-oxo-2,5-dihydro-pyrrol-1-yl]-2-methyl-pyridinium; chloride]",,165 °C,2 µM
"COCCON=C(C1=C(O)C(=O)N(c2ccc(C)nn2)C1c1ccc(OC(F)(F)F)cc1)c1ccc(C(C)C)cc1 (mixture of isomers) [Example 84, 3-Hydroxy-4-{(4-isopropyl-phenyl)-[2-methoxy-ethoxyimino]-methyl}-1-(6-methyl-pyridazin-3-yl)-5-(4-trifluoromethoxy-phenyl)-1,5-dihydro-pyrrol-2-one]",,115 to 118 °C,3 µM
"Cc1ccc(N2C(=O)C(O)=C(C(=O)c3ccc(C(C)C)cc3)C2c2ccc(Cl)cc2)nn1 (stereo not shown) [Example 87, 5-(4-chloro-phenyl)-3-hydroxy-4-(4-isopropyl-benzoyl)-1-(6-methyl-pyridazin-3-yl)-1,5-dihydro-pyrrol-2-one]",< 10 µM,258 to 260 °C,
"CCOc1ccc(C(=O)C2=C(O)C(=O)N(c3ccc(C)nn3)C2c2ccc(OC(F)(F)F)cc2)cc1 (stereo not shown) [Example 101, 4-(4-ethoxy-benzoyl)-3-hydroxy-1-(6-methyl-pyridazin-3-yl)-5-(4-trifluoromethoxy-phenyl)-1,5-dihydro-pyrrol-2-one]",< 10 µM,255 to 257 °C,
"Cc1ccc(C(=O)C2=C(O)C(=O)N(c3ccc(C)nn3)C2c2cccc(OC(C)C)c2)cc1 (stereo not shown) [Example 38, 3-hydroxy-5-(3-isopropoxy-phenyl)-4-(4-methyl-benzoyl)-1-(6-methyl-pyridazin-3-yl)-1,5-dihydro-pyrrol-2-one]",,243 to 245 °C,10 µM
"Cc1ccc(C(=O)C2=C(O)C(=O)N(c3ccc(C)cn3)C2c2ccc(C(C)C)cc2)cc1 (stereo not shown) [Example 41, 3-hydroxy-5-(4-isopropyl-phenyl)-4-(4-methyl-benzoyl)-1-(5-methyl-pyridin-2-yl)-1,5-dihydro-pyrrol-2-one]",,259 to 261 °C,7 µM
"Cc1ccc(N2C(=O)C(O)=C(C(=O)c3ccc(C(F)(F)F)nc3)C2c2ccc(OC(F)(F)F)cc2)nn1 (stereo not shown) [Example 126, 3-hydroxy-1-(6-methyl-pyridazin-3-yl)-5-(4-trifluoromethoxy-phenyl)-4-(6-trifluoromethyl-pyridine-3-carbonyl)-1,5-dihydro-pyrrol-2-one]",< 10 µM,172 °C,
"Cc1ccc(C(=O)C2=C(O)C(=O)N(c3ccc(C)nn3)C2c2ccc(OC(C)C)cc2)cc1 (stereo not shown) [Example 33, 3-hydroxy-5-(4-isopropoxy-phenyl)-4-(4-methyl-benzoyl)-1-(6-methyl-pyridazin-3-yl)-1,5-dihydro-pyrrol-2-one]",,268 to 272 °C,2 µM
"COc1ccc(C2C(C(=O)c3ccc(OC(F)(F)F)cc3)=C(O)C(=O)N2c2ccc(C)nn2)cc1 (stereo not shown) [Example 24, 3-hydroxy-5-(4-methoxy-phenyl)-1-(6-methyl-pyridazin-3-yl)-4-(4-trifluoromethoxy-benzoyl)-1,5-dihydro-pyrrol-2-one]",,279 °C,3 µM
"Cc1ccc(C(=O)C2=C(O)C(=O)N(c3ccc(N(C)C)nn3)C2c2ccc(C(C)C)cc2)cc1 (stereo not shown) [Example 37, 1-(6-dimethylamino-pyridazin-3-yl)-3-hydroxy-5-(4-isopropyl-phenyl)-4-(4-methyl-benzoyl)-1,5-dihydro-pyrrol-2-one]",,281 °C,9 µM
"Cc1ccc(C(=O)C2=C(O)C(=O)N(c3ccc(C)nn3)C2c2ccc(C(F)(F)F)cc2)cc1 (stereo not shown) [Example 18, 3-hydroxy-4-(4-methyl-benzoyl)-1-(6-methyl-pyridazin-3-yl)-5-(4-trifluoromethyl-phenyl)-1,5-dihydro-pyrrol-2-one]",,278 °C,1 µM
"Cc1ccc(N2C(=O)C(O)=C(C(=O)c3ccc(C(C)C)cc3)[C@@H]2c2ccc(C(F)(F)F)cc2)nn1 [Example 190, 3-hydroxy-4-(4-isopropyl-benzoyl)-1-(6-methyl-pyridazin-3-yl)-5(S)-(4-trifluoromethyl-phenyl)-1,5-dihydro-pyrrol-2-one]",< 10 µM,252 °C,
"Cc1ccc(N2C(=O)C(O)=C(C(=O)c3ccc(C(C)C)cc3)C2c2ccc(N(C)C)cc2)nn1 (stereo not shown) [Example 135, 5-(4-dimethylamino-phenyl)-3-hydroxy-4-(4-isopropyl-benzoyl)-1-(6-methyl-pyridazin-3-yl)-1,5-dihydro-pyrrol-2-one]",< 10 µM,283 to 286 °C,
"Cc1ccc(N2C(=O)C(O)=C(C(=O)c3ccc(C(C)C)cc3)C2c2ccc(N3CCOCC3)cc2)nn1 (stereo not shown) [Example 58, 3-hydroxy-4-(4-isopropyl-benzoyl)-1-(6-methyl-pyridazin-3-yl)-5-(4-morpholin-4-yl-phenyl)-1,5-dihydro-pyrrol-2-one]",,293 to 294 °C,5 µM
"Cc1ccc(N2C(=O)C(O)=C(C(=NOCC(=O)O)c3ccc(C(C)C)cc3)C2c2ccc(OC(F)(F)F)cc2)nn1 (mixture of isomers) [Example 83, [[4-Hydroxy-1-(6-methyl-pyridazin-3-yl)-5-oxo-2-(4-trifluoromethoxy-phenyl)-2,5-dihydro-1H-pyrrol-3-yl]-(4-isopropyl-phenyl)-methyleneaminooxy]-acetic acid]",,227 °C,8 µM
"COCCOc1ccc(C(=O)C2=C(O)C(=O)N(c3ccc(C)nn3)C2c2ccc(OC(F)(F)F)cc2)cc1 (stereo not shown) [Example 85, 3-Hydroxy-4-[4-(2-methoxy-ethoxy)-benzoyl]-1-(6-methyl-pyridazin-3-yl)-5-(4-trifluoromethoxy-phenyl)-1,5-dihydro-pyrrol-2-one]",< 10 µM,216 to 219 °C,
